Reference: publication PMC6095626, “Screening of the Pathogen Box for inhibitors with dual efficacy against Giardia lamblia and Cryptosporidium parvum” (PLoS Neglected Tropical Diseases, 2018)

How the values were obtained:
[1] = system: G. lamblia trophozoites (luciferase expressing, WBC6); assay: microbe, parasite or virus in culture; format: cell-based, Giardia lamblia; conditions: for Giardia (16 uM) Mean % inhibition: initial Pathogen Box screen, single concentration 16 µM, inhibition compared to DMSO wells
Outline: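 Luciferase-expressing WBC6 trophozoites plated at 250,000 cells/mL, compounds added 1:1, incubated anaerobically (GasPak bags) at 37 °C for 24 h; viability read by bioluminescence, with duplicate plates counted on a MOXI Z cell counter. Metronidazole control serially diluted 1:2 from 40 μM.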

[2] = system: C. parvum (UGA1 Nluc expressing strain in HCT-8 cells); assay: microbe, parasite or virus in culture; format: cell-based, Cryptosporidium parvum; conditions: initial Pathogen Box screen, single concentration 10 µM, inhibition compared to DMSO wells
Outline: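 HCT-8 monolayers grown 48 h to 90–100% confluence, treated with compound at 10 μM or serial dilutions, then infected with bleach-treated UGA1 Nluc C. parvum oocysts.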

Compound | Giardia (16 uM) Mean % inhibition [1] | Crypto (10 uM) Mean % inhibition [2] | G. lamblia inhibition of parasite growth in the initial screen ([1]; 16 μM, 24 hours) [%] | G. lamblia EC50 ([1]; luciferase expressing G. lamblia trophozoites, 24 hours, D-luciferin bioluminescence read-out)
CC1(C)Cc2c(c(N3CCOCC3)nc3snc(Br)c23)CO1 [MMV687794] | 17% | X* (Mean or standard deviation are negative but not significantly different from the control to be a growth promoter) | – | –
NCCC(O)C(=O)N[C@@H]1C[C@H](N)[C@@H](OC2O[C@H](CN)[C@@H](O)[C@H](O)[C@H]2O)[C@H](O)C1OC1O[C@H](CO)[C@@H](O)[C@H](N)[C@H]1O (some centres unmarked) [MMV687796] | X* (Mean or standard deviation are negative but not significantly different from the control to be a growth promoter) | 82% | – | –
C[C@H]1COc2c(N3CCN(C)CC3)c(F)cc3c(=O)c(C(=O)O)cn1c23 [MMV687798] | 61% | 50% | – | –
CC[C@H](CO)NCCN[C@H](CC)CO [MMV687801] | X* (Mean or standard deviation are negative but not significantly different from the control to be a growth promoter) | 8% | – | –
CC(=O)NC[C@@H]1CN(c2ccc(N3CCOCC3)c(F)c2)C(=O)O1 [MMV687803] | X* (Mean or standard deviation are negative but not significantly different from the control to be a growth promoter) | X* (Mean or standard deviation are negative but not significantly different from the control to be a growth promoter) | – | –
O=C1O[C@@H](COc2ccon2)CN1c1cc(F)c(C2=CCN(Cc3ccccc3)CC2)c(F)c1 [MMV687813] | 32% | 40% | – | –
Cc1cccc(-c2nc(Nc3ccncn3)c3sccc3n2)n1 [MMV688122] | 33% | 93% | – | –
CCc1ccc(S(=O)(=O)Nc2cc(CN3CCN(CCC(C)C)CC3)ccc2C)cc1 [MMV688124] | 72% | X* (Mean or standard deviation are negative but not significantly different from the control to be a growth promoter) | – | –
CCCc1ccc(S(=O)(=O)Nc2ccc(CN3CCN(CC4CC4)CC3)cc2)cc1 [MMV688125] | 59% | 50% | – | –
c1ccc(Oc2ccc(-c3cncc(-c4ccc5[nH]ccc5c4)n3)cc2)cc1 [MMV688178] | X* (Mean or standard deviation are negative but not significantly different from the control to be a growth promoter) | 59% | – | –
NC(N)=Nc1ccc(-c2ccc(-c3ccc(N=C(N)N)cc3Cl)o2)c(Cl)c1 [MMV688179] | 11% | 56% | – | –
Cc1nn(C)c(C)c1NS(=O)(=O)c1c(Cl)cc(-c2ccnc(N3CCNCC3)c2)cc1Cl [MMV688180] | 21% | 66% | – | –
COc1ccc(-c2cnc3cnc(-c4cccc(OC(C)C)c4)cn23)cc1 [MMV688270] | 10% | X* (Mean or standard deviation are negative but not significantly different from the control to be a growth promoter) | – | –
N=C(N)Nc1ccc(-c2ccc(-c3ccc(N=C(N)N)c(Cl)c3)o2)cc1Cl [MMV688271] | 53% | 86% | – | –
Nc1ccc2ncnc(Nc3ccc(OCc4cccc(F)c4)c(Cl)c3)c2c1 [MMV688273] | 51% | X* (Mean or standard deviation are negative but not significantly different from the control to be a growth promoter) | – | –
O=C(CN1CCOCC1)Nc1ccc2ncnc(Nc3ccc(OCc4cccc(F)c4)c(Cl)c3)c2c1 [MMV688274] | 26% | 47% | – | –
CC1=Nc2ccc(Cl)cc2C(O)(c2ccc(C)cc2)N1CCN1CCCCC1 (centres unmarked) [MMV688279] | 65% | 43% | – | –
CN1CCN(S(=O)(=O)c2ccc(-c3ccc4c(Nc5ncc(Cl)cn5)ccnc4c3)cc2)CC1 [MMV688283] | 95% | 89% | ≥ 95 | not potent
COc1ccc(-c2nnc3ccc(-c4cccc(C(C)C)c4)cn23)cc1OC [MMV688313] | 26% | 34% | – | –
CC(=O)NC[C@H]1CN(c2ccc(-c3ccc(CNCc4cn[nH]n4)cc3)c(F)c2)C(=O)O1 [MMV688327] | 21% | 33% | – | –

Compound | Giardia (16 uM) Mean % inhibition [1] | Crypto (10 uM) Mean % inhibition [2] | G. lamblia inhibition of parasite growth in the initial screen ([1]; 16 μM, 24 hours) [%] | G. lamblia EC50 ([1]; luciferase expressing G. lamblia trophozoites, 24 hours, D-luciferin bioluminescence read-out)
CC(=O)N1CCN(c2ccc(Oc3ccc(Cl)cc3O)cc2)CC1 [MMV688330] | X* (Mean or standard deviation are negative but not significantly different from the control to be a growth promoter) | 56% | – | –
Nc1nc(N)c2c3c(sc2n1)CN(Cc1ccccc1)CC3 [MMV688345] | 16% | X* (Mean or standard deviation are negative but not significantly different from the control to be a growth promoter) | – | –
COC(=O)c1ccc(F)cc1NS(=O)(=O)c1cccc(-c2cnn(Cc3ccccc3)c2)c1 [MMV688350] | -6% | 53% | – | –
O=C1[C@@H](Oc2ccccc2)[C@@H](c2ccc(Cl)cc2)N1CCn1cnc2c(NCc3ccccc3)ncnc21 [MMV688352] | 41% | X* (Mean or standard deviation are negative but not significantly different from the control to be a growth promoter) | – | –
c1cc(C2=NCCN2)cc(-c2cc(-c3ccc(C4=NCCN4)cc3)no2)c1 [MMV688361] | 38% | 44% | – | –
COc1cc(C2=NCCN2)cc2cc(-c3ccc(C4=NCCN4)cc3)oc12 [MMV688362] | 54% | 67% | – | –
CC(C)(C)OC(=O)N1CCC(Cn2nc(-c3cnc4ccccc4c3)c3c(N)ncnc32)CC1 [MMV688364] | 56% | X* (Mean or standard deviation are negative but not significantly different from the control to be a growth promoter) | – | –
NCCN(C(=O)c1ccc(Cl)cc1Cl)c1ccc(OCc2ccc(Cl)cc2)cc1 [MMV688371] | 72% | 76% | – | –
O=C(Nc1ccc(F)c(-c2nc3ncc(-c4ccccc4)cc3[nH]2)c1)N1CCCC1 [MMV688372] | 24% | 48% | – | –
COc1cc(C2=NCCN2)ccc1-c1cn(-c2cccc(C3=NCCN3)c2)nn1 [MMV688407] | 50% | X* (Mean or standard deviation are negative but not significantly different from the control to be a growth promoter) | – | –
CC1=Nc2ccc(Cl)cc2C(c2ccccc2)N1CCNC(=O)CN(C)C (centres unmarked) [MMV688410] | 20% | 62% | – | –
Nc1ncnc2c1c(-c1cnc3ccccc3c1)nn2CC1CCNCC1 [MMV688411] | X* (Mean or standard deviation are negative but not significantly different from the control to be a growth promoter) | X* (Mean or standard deviation are negative but not significantly different from the control to be a growth promoter) | – | –
CO[C@@H]1CN(c2ccc(C#CC3(O)CN4CCC3CC4)c(Cc3ccccc3)n2)C[C@H]1O (some centres unmarked) [MMV688415] | X* (Mean or standard deviation are negative but not significantly different from the control to be a growth promoter) | X* (Mean or standard deviation are negative but not significantly different from the control to be a growth promoter) | – | –
CC(C)(C)OC(=O)N1CCN(c2nccc(-c3ccc(-c4ccc(Cl)cc4)s3)n2)CC1 [MMV688416] | 55% | 41% | – | –
CC(C)n1nc(-c2cc3c(Cl)cccc3[nH]2)c2c(N)ncnc21 [MMV688417] | 77% | 85% | – | –
Cn1ccnc1CNCCS(=O)(=O)c1cccc(Nc2ccc(-c3cccc(F)c3)cn2)c1 [MMV688466] | 28% | 43% | – | –
CCCCN(CCCC)c1c(C#N)cc(S(=O)(=O)Nc2ccccc2)cc1C#N [MMV688467] | 60% | X* (Mean or standard deviation are negative but not significantly different from the control to be a growth promoter) | – | –
Nc1ncnc2n[nH]c(Cc3cccc4ccccc34)c12 [MMV688469] | 9% | 57% | – | –
CS(=O)(=O)N1CCC(CCn2nc(Cc3cccc4ccccc34)c3c(N)ncnc32)CC1 [MMV688470] | 23% | 80% | – | –
